From patent US5430062A, “Stilbene derivatives as anticancer agents” (priority 1993, dated 1995)
Values joined by “and” are separate entries in the source; they are usually repeats but may differ in a detail not shown here. Equal values may be shown once.

Tested on: HL-60 (TB) leukemia
Assay: Cytotoxicity, HL-60(TB) leukemia
Details: Hydrochloride

COc1cc(CNc2ccc(C)cc2)cc(OC)c1OC.Cl [110a, 4-Methyl-N-(3,4,5-trimethoxybenzyl)aniline Hydrochloride]
Log10 GI50, HL-60 (TB): < -7.00 and -7.05
